Assay in all cases: inhibition of tumour cell growth, NCI panel, 48 h
For test [1], the system named is OVCAR-4.
In test [2] the test system is PC-3.
Test [3] concerns HT-29.
Test [4] has as its system BT-549.
Test [5] has as its system SNB-19.
Test [6] has as its system MOLT-4.
Test [7] concerns MDA-MB-435.
Test [8] has as its system HOP-92.
Test [9] concerns UACC-257.
Test [10] concerns TK-10.
Test [11] has as its system SR.
Test [12] concerns K562.
The test system of test [13] is SK-MEL-2.
Test [14] concerns SW-620.
For test [15], the system named is KM12.
For test [16], the system named is Hs-578T.
Test [17] concerns SK-MEL-5.
The subject of test [18] is OVCAR-8.
In test [19] the test system is SF-268.
The test system of test [20] is SNB-75.

Molecules are shown by their SMILES.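 In this assay, cells in 96-well plates receive the compound at five concentrations for 48 hours. Endpoints are linearly interpolated between the surrounding concentrations. At the GI50, growth is halved.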 Activity calls are given as the source filed them. No stated cut-off is given here; in the data, active = GI50 up to about 1.1 µM and inactive = higher. Where a SMILES comes first, the peptide text is derived from it. [ ]: non-standard residue; d: D form. The star is where a group is joined. ξ: configuration not given here. ξNMe2Val = CC(C)C(C(=O)*)N(C)C; NMeV = CN[CH](C(=O)O)C(C)C; NHBn = c1ccc(CN*)cc1

On to `CC(=O)Oc1cc(S(=O)(=O)Nc2n[nH]c(Nc3ccc(C)cc3)n2)c(S)cc1Cl`, for which the GI50 is > 100 µM (inactive) in [1]; > 100 µM (inactive) in test [2]; > 100 µM (inactive) in test [3]; > 100 µM (inactive) in test [4]; > 100 µM (inactive) in [5]; 83.2 µM (inactive) in test [6]. Besides, the GI50 was > 100 µM (inactive) in [7]; > 100 µM (inactive) in [8]; > 100 µM (inactive) in [9]; > 100 µM (inactive) in test [10]; 66.7 µM (inactive) in test [11]; 68.1 µM (inactive) in [12]. Also, the GI50 in test [13] is > 100 µM (inactive); in test [14], > 100 µM (inactive); in test [15], > 100 µM (inactive); in test [16], 79.3 µM (inactive); in test [17], > 100 µM (inactive); in [18], > 100 µM (inactive).

Regarding `Nc1nc2c(C(=O)NCc3cccs3)nnn2c2cccc(Cl)c12`, the GI50 in [1] is > 100 µM (inactive); in test [2] it was 54.5 µM (inactive); in [3], > 100 µM (inactive); in [4], > 100 µM (inactive); in [5], > 100 µM (inactive); in test [6], 89.5 µM (inactive). Moreover, the GI50 in test [7] is > 100 µM (inactive); in test [8] it was 79.3 µM (inactive); in test [9], > 100 µM (inactive); in [10], > 100 µM (inactive); in [11], 52.2 µM (inactive); in test [12], > 100 µM (inactive). In addition, the GI50 is > 100 µM (inactive) in [13]; > 100 µM (inactive) in test [19]; 91.2 µM (inactive) in test [14]; > 100 µM (inactive) in [15]; > 100 µM (inactive) in test [16]; 92.3 µM (inactive) in [17]. For the same compound, in [18], the GI50 is 84.7 µM (inactive).

As for `CCCCC/N=C/c1c(O)c(O)c(C(C)C)c2cc(C)c(-c3c(C)cc4c(C(C)C)c(O)c(O)c(/C=N/CCCCC)c4c3O)c(O)c12`, the GI50 was 5.35 µM (inactive) in test [2]; 2.88 µM (inactive) in test [3]; 7.87 µM (inactive) in test [4]; 3.78 µM (inactive) in test [5]; 6.3 µM (inactive) in [7]; 3.73 µM (inactive) in test [8]. Also, the GI50 in [9] is 15.6 µM (inactive); in [10], 15 µM (inactive); in test [11], 4.24 µM (inactive); in [12] it was 4.25 µM (inactive); in test [13], 14 µM (inactive); in [19], 6.5 µM (inactive). Further, the GI50 was 6.97 µM (inactive) in [14]; 4.7 µM (inactive) in test [15]; 17.2 µM (inactive) in [16]; 6.3 µM (inactive) in [17]; 7.4 µM (inactive) in test [18].

On to `O=P1(Oc2ccccc2)N=P(c2ccccc2)(c2ccccc2)C=C(c2ccc(Cl)cc2)N1` (stereo unspecified), for which the GI50 in [2] is 6.58 µM (inactive); in test [3] it was 4.29 µM (inactive); in [4], 16 µM (inactive); in [5] it was 15.3 µM (inactive); in [6] it was 5.18 µM (inactive); in test [7], 4.44 µM (inactive). The GI50 in test [8] is 9.18 µM (inactive); in [9] it was 15.4 µM (inactive); in test [10] it was 13.1 µM (inactive); in [11], 3.6 µM (inactive); in test [12], 5.43 µM (inactive); in test [13], 13.5 µM (inactive). The GI50 in test [19] is 11.6 µM (inactive); in test [14], 12.3 µM (inactive); in test [15], 10.3 µM (inactive); in test [16], 16.7 µM (inactive); in [17] it was 2.25 µM (inactive); in test [18], 14.4 µM (inactive).

Consider `COc1ccc(N2C(=O)CSC2c2cc(OC)c(OC)c(OC)c2)cc1` (stereo unspecified), for which the GI50 in test [1] is 42.5 µM (inactive); in [2] it was 25.1 µM (inactive); in [3], 21.6 µM (inactive); in [4] it was 23.2 µM (inactive); in test [5], 23.2 µM (inactive); in test [6], 21.4 µM (inactive). The GI50 in test [7] was 10.9 µM (inactive); in test [8], 54.6 µM (inactive); in [9] it was 12.5 µM (inactive); in test [10], 43.2 µM (inactive); in test [11] it was 5.41 µM (inactive); in [12], 11.9 µM (inactive). Besides, the GI50 was 33.9 µM (inactive) in [13]; 31.8 µM (inactive) in [19]; 34 µM (inactive) in [14]; 15.1 µM (inactive) in [15]; 48.6 µM (inactive) in test [16]; 20.9 µM (inactive) in test [17]. Further, the GI50 in test [18] is 29.9 µM (inactive).

As to `c1ccc(C(CCN2CCCC2)c2ccccn2)cc1` (stereo unspecified), the GI50 in test [1], in test [2], in test [3], in test [4], in [5] and in test [7] was > 100 µM (inactive) each time. Besides, the GI50 in [8] is > 100 µM (inactive); in test [9], > 100 µM (inactive); in [20], > 100 µM (inactive); in test [10], > 100 µM (inactive); in test [11] it was < 0.01 µM (active); in test [12] it was > 100 µM (inactive). The GI50 in [13], in test [19], in [14], in [15], in test [16] and in test [17] was > 100 µM (inactive) throughout. The GI50 in test [18] is > 100 µM (inactive).

As to `O=c1oc2ccccc2cc1/C=N/N1C(=S)N(c2ccccc2)C(=N\c2ccccc2)/C1=N/c1ccccc1`, the GI50 is 14 µM (inactive) in test [2]; > 10 µM (inactive) in [3]; > 100 µM (inactive) in [4]; > 100 µM (inactive) in test [5]; > 100 µM (inactive) in test [6]; > 100 µM (inactive) in test [7]. Moreover, the GI50 in test [8] is > 100 µM (inactive); in test [9], 96.8 µM (inactive); in [20], 1.65 µM (inactive); in test [10], > 100 µM (inactive); in [11] it was > 100 µM (inactive); in test [12] it was > 100 µM (inactive). Moreover, the GI50 in test [13] is > 100 µM (inactive); in test [19], > 100 µM (inactive); in test [14], 8.71 µM (inactive); in [15], > 100 µM (inactive); in test [16], > 100 µM (inactive); in test [17], 87.7 µM (inactive). Also, the GI50 in test [18] was 34.6 µM (inactive).

`COc1cc(C2c3cc4c(cc3OC(NN)C2C)OCO4)cc(OC)c1OC` (stereo unspecified): the GI50 is 23.6 µM (inactive) in test [1]; 0.556 µM (active) in test [2]; 0.36 µM (active) in test [3]; 9.12 µM (inactive) in test [4]; 0.813 µM (active) in test [5]; 0.406 µM (active) in test [6]. In addition, the GI50 in test [7] was 0.157 µM (active); in [8], 2.04 µM (inactive); in test [20], 0.289 µM (active); in test [10] it was 28.3 µM (inactive); in [11], 0.287 µM (active); in [12], 0.333 µM (active). Further, the GI50 in [13] is 0.647 µM (active); in test [19] it was 2.5 µM (inactive); in test [14], 0.447 µM (active); in [15], 0.466 µM (active); in test [16], 0.234 µM (active); in test [17] it was 0.478 µM (active). Also, the GI50 in test [18] is 1.93 µM (inactive).

Consider `Brc1cccc(/N=N/N2CCCC2)c1`, for which the GI50 is > 100 µM (inactive) in [1]; 71.3 µM (inactive) in test [2]; 68.9 µM (inactive) in [4]; > 100 µM (inactive) in [5]; 71.8 µM (inactive) in test [6]; > 100 µM (inactive) in test [7]. In addition, the GI50 in [8] was 63.1 µM (inactive); in [9], > 100 µM (inactive); in test [20], 65.5 µM (inactive); in [10] it was > 100 µM (inactive); in [11] it was 27.4 µM (inactive); in test [12], 48.9 µM (inactive). The GI50 is > 100 µM (inactive) in test [13]; > 100 µM (inactive) in test [19]; > 100 µM (inactive) in test [14]; 93.5 µM (inactive) in test [15]; > 100 µM (inactive) in test [16]; 66.2 µM (inactive) in test [17]. Besides, the GI50 in [18] was > 100 µM (inactive).

As for `CC(C)C(NC(=O)C(C(C)C)N(C)C)C(=O)N(C)C(C(=O)N1CCCC1C(=O)N1CCCC1C(=O)NCc1ccccc1)C(C)C` (stereo unspecified) (ξNMe2Val-V[NMeV]PP-NHBn; configuration not given here), the GI50 in test [1] is 15.7 µM (inactive); in test [2], < 0.0001 µM (active); in [3] it was < 0.0001 µM (active); in test [4], < 0.0001 µM (active); in [5], < 0.01 µM (active); in test [6], < 0.0001 µM (active). Further, the GI50 was < 0.0001 µM (active) in test [7]; < 0.0001 µM (active) in test [8]; < 0.0001 µM (active) in [9]; 0.172 µM (active) in [20]; < 0.0001 µM (active) in [11]; 0.001 µM (active) in test [12]. Further, the GI50 in test [13], in [19], in test [14], in test [15], in [16] and in [17] was < 0.0001 µM (active) each time. Moreover, in [18], the GI50 is < 0.0001 µM (active).

Source of the values: ChEMBL document CHEMBL1201862, “PubChem BioAssay data set” (2004).
